Like-named read-outs stand apart in the source and are kept apart here.
How the values were obtained:
[1] = system: HIV-1 (PBL286 (02ET_14), subtype C, Ethiopian isolate); assay: Anti-HIV screening in PBMC (Southern Research Institute); type: cell-based; conditions: for inhibition at 0.08 µg/mL: read-out: inhibition of HIV replication in PBMC; for EC50: read-out: Antiviral Activity EC50; for EC90: read-out: Antiviral Activity EC90
[2] = system: HIV provirus expression in J-Lat 10.6 T cells; assay: In vitro HIV latency reversal, GFP expression by flow cytometry; type: cell-based; conditions: 24 h
[3] = Cell viability by resazurin dye; type: cell-based; conditions: human, Jurkat T cells (Clone E6-1), parental, lacking HIV provirus, read-out: viability relative to 0.1% DMSO
[4] = system: HIV-1 in primary CD4+ T cells from cART-suppressed donors; assay: Ex vivo latency reversal, supernatant viral RNA by qRT-PCR; type: cell-based; conditions: 24 h, 3 donors
[5] = Primary cell viability by trypan blue counting; type: cell-based; conditions: human, 3 donors, read-out: viability of primary CD4+ T cells
Jurkat cells = assay: T cell activation, CD69 expression by flow cytometry; type: cell-based; conditions: 24 h
HeLa-SXR5 cell line = assay: Cytotoxicity under deCIPhR cell culture conditions (Alamar Blue, four days); conditions: four days of incubation, any concentration (0.08 to 5 μg/mL)
[6] = PBMC viability / cytotoxicity (MTS dye); conditions: human
[7] = system: CXCR4-tropic HIV isolate NL4-3; assay: deCIPhR in vitro anti-HIV replication assay (β-galactosidase, LTR-driven LacZ); type: cell-based
J-Lat 10.6 cells = assay: Effect of PKC inhibitors Gö 6983 and enzastaurin on LRA-induced latency reversal; type: cell-based; conditions: 1 μM Gö 6983
in vitro = conditions: human
[8] = Human immunodeficiency virus 1, PBMC
[9] = Human immunodeficiency virus 1, PBMC, subtype C virus

C=C(C)C12OC3(/C=C/C=C/CCCCC)OC1C1C4OC4(CO)C(O)C4(O)C(=O)C(C)=CC4C1(O3)C(C)C2OC(=O)c1ccccc1 (stereo not shown) [Compound 2, yuanhuacine]
inhibition at 0.08 µg/mL [1, 8]: > 80%
GFP expression (latency reversal), % of live-gated cells ([2]; 0.15 μM): 58.2 ± 4.7%
viability at 24 h, 1.5 µM [3]: 58.5 ± 15.9%
average fold increase in viral RNA ([4]; 1.5 μM): 9.1 fold
average supernatant viral RNA ([4]; 1.5 μM): 297 ± 267 copies/mL
viability at 24 h, 1.5 µM [5]: 79.6 ± 41.5%
CD69-positive cells (Jurkat cells; 0.5 μM): 74.5 ± 1.3%

C=C(C)C12OC3(/C=C/C=C/CCC)OC1C1C4OC4(CO)C(O)C4(O)C(=O)C(C)=CC4C1(O3)C(C)C2OC(=O)c1ccccc1 (stereo not shown) [Compound 1, yuanhuacine A]
EC50 [1, 8]: 0.03 µM
EC90 [1, 8]: 0.09 µM
inhibition at 0.08 µg/mL [1, 8]: > 80%
Selectivity Index CC50/IC50 ([1]; PBMC): >500
GFP expression (latency reversal), % of live-gated cells ([2]; 0.15 μM): 65.5 ± 6.3%
viability at 24 h, 1.5 µM [3]: 51.2 ± 11.2%
average fold increase in viral RNA ([4]; 1.5 μM): 10.8 fold
average supernatant viral RNA ([4]; 1.5 μM): 352.5 ± 430.4 copies/mL
viability at 24 h, 1.5 µM [5]: 96.4 ± 32.2%
CD69-positive cells (Jurkat cells; 0.5 μM): 75.4 ± 2.2%
cytotoxicity (Alamar Blue) (HeLa-SXR5 cell line): no evidence of cytotoxicity at any concentration
CC50 [6]: > 15 µM
inhibition of HIV replication across all test concentrations ([7]; test concentrations 0.08 to 5 μg/mL): 65–80%

Cc1[nH]c2ccccc2c1CCNCc1ccc(/C=C/C(=O)NO)cc1 [Panobinostat, reference compound]
effect of Gö 6983 on latency reversal (J-Lat 10.6 cells; LRA at 0.1 μM): unaffected
CD69-positive cells (Jurkat cells; 0.1 μM): 1.5 ± 1.3%

Cc1cn([C@H]2C[C@H](N=[N+]=[N-])[C@@H](CO)O2)c(=O)[nH]c1=O [AZT, azidothymidine, reference compound]
EC50 [1, 9]: 0.007 µM
EC90 [1, 9]: 0.05 µM
Selectivity Index CC50/IC50 ([1]; PBMC): >142
CC50 (in vitro): > 1 µM

CC(=O)O[C@@]12C[C@@H](C)[C@@]3(O)[C@@H](C=C(CO)C[C@]4(O)C(=O)C(C)=C[C@@H]34)[C@@H]1C2(C)C [prostratin, reference compound]
GFP expression (latency reversal), % of live-gated cells ([2]; 2.5 μM): 66.0 ± 5.7%
viability at 24 h, 0.5 µM ([3]; 0.5 μM): 56 ± 10%
reduction in latency reversal by pan-PKC inhibitor Gö 6983 (J-Lat 10.6 cells; LRA at 2.5 μM): 74.7 ± 17.3%
average fold increase in viral RNA ([4]; 10 μM): 23.2 fold
average supernatant viral RNA ([4]; 10 μM): 755.5 ± 1144.2 copies/mL
viability at 24 h, 10 µM ([5]; 10 μM): 65.9 ± 12.4%
CD69-positive cells (Jurkat cells; 2.5 μM): 73.2 ± 1.3%

O=C1Nc2ccc(Cl)cc2[C@@](C#CC2CC2)(C(F)(F)F)O1 [efavirenz]
inhibition at 0.43 µM ([7]; Human immunodeficiency virus 1, NL43, 430 nM): 43.9 ± 41.9%
inhibition at 0.93 µM ([7]; Human immunodeficiency virus 1, NL43, 930 nM): 111 ± 22.1%
inhibition at 2 µM ([7]; Human immunodeficiency virus 1, NL43, 2000 nM): 107 ± 24.1%
inhibition at 4.3 µM ([7]; Human immunodeficiency virus 1, NL43, 4300 nM): 100%
